Columns and labels:
[1] = biological target: T1, H3R (Homo sapiens, UniProt Q9Y5N1); test: Affinity at the H3R (literature values); assay type: binding; settings: H3R Ki relative to sigma-2 Ki
T1 construct: the Aequoscreen line co-expresses apoaequorin

[2] = tested on: rats fed a palatable diet; test: Plasma triglyceride and corticosterone levels in the model of excessive eating; assay type: in vivo, female Wistar rats; settings: KSK 10 mg/kg, phentermine 7 mg/kg
Protocol: Blood was collected from the left carotid artery and then centrifuged at 600× g (15 min, 4 °C) to obtain plasma.
To determine plasma triglyceride levels, standard enzymatic and spectrophotometric tests (Cat. No 1-053-A150, Biomaxima S.A., Lublin, Poland) were used. The ELISA Kit (Item No. 501320, Cayman Chemical, Ann Arbor, MI, USA) was used to determine corticosterone levels in plasma.

[3] = tested on: adipose tissue; test: Histological examination of adipose tissue (Masson's trichrome); assay type: in vivo, female Wistar rats; settings: palatable diet; for inflammatory infiltrates in adipose tissue (histological description) / number of adipocytes per 0.1 mm^2 of cross-sectional area / inflammatory index of the adipose tissue: KSK 10 mg/kg, phentermine 7 mg/kg; for number of adipocytes per 0.1 mm^2 of cross-sectional area: means ± SD, n = 6; for inflammatory index of the adipose tissue: standard diet + vehicle 0.5 ± 0.34
Protocol: Adipose tissue samples were prepared for histology using Masson’s trichrome stain (Merck) by fixation in 4% formaldehyde, dehydration in graded alcohol, and embedded in paraffin. The tissue samples were then sectioned using a microtome of 5 μm thickness. Six random fields from each section were analyzed in a blinded manner with an Olympus BX41 light microscope (Olympus, Tokyo, Japan) at magnifications of ×20, ×40 and ×100, and digital images were captured with an Olympus UC90 color camera. The quantitation of the number of adipocytes was performed in eight fields/slide with ×100 objective using an image analysis system: CellSensDimension (Olympus, Tokyo, Japan). The numerical density of the adipocytes was obtained by counting the total number of adipocytes per high-power field ([…]), and then this number was converted to 0.1 mm^2. According to stereometric rules, adipocytes tangent to the left and top edges of the image field were not counted. A semi-quantitative scale was used to assess the inflammatory response in adipose tissue. The following were evaluated on a subjective scale: inflammatory cell infiltration between adipocytes (0—normal, 1—few cells, 2—local clusters, and 3—extensive infiltrates), perivascular infiltration of immune cells (0—normal, 1—few cells, and 2—ring of inflammatory cells), widening of the septum (0—normal and 1—widening), and capillary congestion (0—normal and 1—congestion). A sum calculated from independently assessed values was calculated for each animal as an index of inflammation.

[4] = biological target: sigma-1 receptor; design: method as in PMID 34908391; settings: Figure 1; read-out: σ1R Ki; cited from earlier work
[5] = biological target: sigma-2 receptor; design: method as in PMID 34908391; settings: Figure 1; read-out: σ2R Ki; cited from earlier work

T1 sequence (Q9Y5N1 whole entry): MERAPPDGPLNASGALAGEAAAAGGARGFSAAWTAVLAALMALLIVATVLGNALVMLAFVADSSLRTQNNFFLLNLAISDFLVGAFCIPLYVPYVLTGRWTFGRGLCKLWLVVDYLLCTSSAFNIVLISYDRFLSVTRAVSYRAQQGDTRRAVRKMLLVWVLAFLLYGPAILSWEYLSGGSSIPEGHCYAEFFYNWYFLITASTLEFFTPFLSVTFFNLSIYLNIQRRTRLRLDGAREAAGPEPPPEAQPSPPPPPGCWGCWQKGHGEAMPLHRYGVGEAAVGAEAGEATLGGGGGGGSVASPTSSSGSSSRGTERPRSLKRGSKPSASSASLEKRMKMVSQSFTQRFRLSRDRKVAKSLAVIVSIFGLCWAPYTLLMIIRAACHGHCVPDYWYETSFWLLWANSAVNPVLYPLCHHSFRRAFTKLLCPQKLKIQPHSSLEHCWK

affinity ratio H3/sigma-2 receptors [1] | Structure (SMILES) | plasma triglyceride levels vs palatable diet + vehicle [2] | inflammatory infiltrates in adipose tissue (histological description) [3] | number of adipocytes per 0.1 mm^2 of cross-sectional area [3] [per 0.1 mm^2] | inflammatory index of the adipose tissue [3] | number of rats, Capillary Congestion grade 0-Normal ([3]; n = 6 per group) | number of rats, Capillary Congestion grade 1-Congestion ([3]; n = 6 per group) | number of rats, Inflammatory Cell Infiltration grade 0-Normal ([3]; n = 6 per group) | number of rats, Inflammatory Cell Infiltration grade 1-Few Cells ([3]; n = 6 per group) | number of rats, Inflammatory Cell Infiltration grade 2-Local Clusters ([3]; n = 6 per group) | number of rats, Perivascular Infiltration grade 0-Normal ([3]; n = 6 per group) | number of rats, Perivascular Infiltration grade 1-Few Cells ([3]; n = 6 per group) | number of rats, Perivascular Infiltration grade 2-Ring of Cells ([3]; n = 6 per group) | number of rats, Widening of the Septum grade 0-Normal ([3]; n = 6 per group) | number of rats, Widening of the Septum grade 1-Widening ([3]; n = 6 per group) | Ki [4] [nM] | Ki [5] [nM]
0.59 | CCC(=O)c1ccc(OCCCCCCCCN2CCN(c3ccncc3)CC2)cc1 [KSK-74] | lower plasma triglyceride levels | slightly less inflammatory infiltrates | 34.78 ± 4.78 | comparable to the standard control | 5 | 1 | 1 | 3 | 2 | 2 | 1 | 3 | 3 | 3 | 274 | 65.9
– | CCC(=O)c1ccc(OCCCCCCN2CCN(c3ccncc3)CC2)cc1 [KSK-60] | No differences in plasma triglyceride levels | Many inflammatory cells infiltrated the area of adipocytes and the perivascular area | 18.02 ± 1.38 | 4.5 ± 0.80 | 2 | 4 | – | 2 | 4 | – | 2 | 4 | 1 | 5 | 248 | 110
